The data set in a line: physchem. The following applies: buffer, pH 7.4.

`O=C(c1c(O)cc(Cl)cc1Cl)N1CCCC2(CCC2)C1` showed a logD of 3.7.

As for `O=C(c1ncc(Cl)cc1O)N1CCC2(CCC2)C1`, the pH-dependent lipophilicity (logD) is 4.9.

The molecule `Cn1cc(C2CCN(C(=O)c3c(O)cc(Cl)cc3Cl)C2)cn1` (racemic) gave a logD of 1.6.

The molecule `O=C(c1c(O)cc(Cl)cc1Cl)N1CCC(Cc2ccccc2)C1` (stereo not drawn) came in with a logD of 3.8.

As for `COc1cc(Cl)cc(Cl)c1C(=O)N1CCC2(CCC2)C1`, the logD came out at 4.

`CC1Cc2ccccc2N1C(=O)c1c(O)cc(Cl)cc1Cl` (stereo not drawn) yielded a log distribution coefficient (logD) of 3.5.

Turning to `O=C(c1c(O)cncc1Cl)N1CCC2(CCC2)C1`, the logD was determined as 1.2.

The molecule `O=C(c1c(O)cc(Cl)cc1Cl)N1CCC(c2cccnc2)C1` (racemic) yielded a logD of 1.7.
